Measurements: patent publication US11028090B2 (Dong Wha Pharm. Co., Ltd., priority 2017, dated 2021)
Like-named read-outs stand apart in the source and are kept apart here.

Columns and labels:
[1] = tested on: acute myelogenous leukemia cells (MV-4-11 cells); test: Cytotoxicity to acute myelogenous leukemia cells (MV-4-11 cells), CCK-8; conditions: Homo sapiens, MV4-11, 72 h
[2] = molecular target: BRD4 (BD1+BD2) bromodomain (Homo sapiens (Human), UniProt O60885); test: BRD4 binding inhibition (AlphaScreen, GST-BRD4 vs tetraacetylated histone H4 peptide)
Procedure, shortened: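 GST-BRD4 (BD1+BD2) and biotinylated tetraacetyl-histone H4 peptide, each at 100 nM in HEPES pH 7.4 buffer with BSA and DTT, were combined with compound. Glutathione acceptor and streptavidin donor beads were added, then incubated 30 min at room temperature in the dark. Read-out was AlphaScreen signal.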

[3] = read-out: MV-4-11 Cytotoxicity IC50
[4] = GST-BRD4 (BD1+BD2) / biotinylated acetyl-histone H4 (Lys5,8,12,16) peptide, read-out: IC50, BRD4 binding inhibition
[5] = GST-BRD4 (BD1+BD2) vs biotinylated acetyl-histone H4 peptide, AlphaScreen, read-out: BRD4 IC50
[6] = read-out: IC50, cytotoxicity against acute myelogenous leukemia cells

Structure (SMILES)	IC50 [1, 3]	IC50 [2, 4]	IC50 [2, 5]	IC50 [1, 6]
COc1cc2nc(NCCCCNC(=O)c3ccccc3OC)c3nnc(C)n3c2cc1OC [Example 97, N-[4-(7,8-dimethoxy-1-methyl-[1,2,4]triazolo[4,3-a]quinoxaline-4-ylamino)-butyl]-2-methoxy-benzamide]	510 nM	≤ 50 nM		
COc1ccc2c(c1)nc(NCCCCNC(=O)C(C)(C)C(F)(F)F)c1nnc(C)n12 [Example 293, 3,3,3-trifluoro-N-[4-(7-methoxy-1-methyl-[1,2,4]triazolo[4,3-a]quinoxaline-4-ylamino)-butyl]-2,2-dimethyl-propaneamide]	673 nM	≤ 50 nM	40 nM	
Cc1nnc2c(NCCCCNC(=O)CC(C)C)nc3cc(NS(C)(=O)=O)ccc3n12 [Example 257, N-[4-(7-methanesulfonylamino-1-methyl-[1,2,4]triazolo[4,3-a]quinoxaline-4-ylamino)-butyl]-3-methyl-butyramide]	327 nM	≤ 10 nM	8 nM	
CCC(CC)C(=O)NCCCCNc1nc2cc(OC)c(OC)cc2n2c(C)nnc12 [Example 78, N-[4-(7,8-dimethoxy-1-methyl-[1,2,4]triazolo[4,3-a]quinoxaline-4-ylamino)-butyl]-2-ethyl-butyramide]	140 nM	≤ 50 nM	20 nM	≤ 200 nM
CCOc1ccc2c(c1)nc(NCCCCNC(=O)Cc1cccs1)c1nnc(C)n12 [Example 446, N-[4-(7-ethoxy-1-methyl-[1,2,4]triazolo[4,3-a]quinoxaline-4-ylamino)-butyl]-2-thiophene-2-yl-acetamide]	10 nM	≤ 50 nM	12 nM	≤ 200 nM
Cc1nnc2c(NCCCCNC(=O)OCC(C)C)nc3cc4c(cc3n12)OCCO4 [Example 189, [4-(1-methyl-8,9-dihydro-7,10-dioxa-2,3,5,11b-tetraaza-cyclopenta[a]anthracene-4-ylamino)-butyl]-carbamic acid isobutylester]	110 nM	≤ 50 nM	17 nM	≤ 200 nM
COc1ccc2c(c1)nc(NCCCCNC(=O)OC(C)(C)C)c1nnc(C)n12 [Example 275, [4-(7-methoxy-1-methyl-[1,2,4]triazolo[4,3-a]quinoxaline-4-ylamino)-butyl]-carbamic acid-tert-butylester]	330 nM	≤ 50 nM	38 nM	
COCCOc1ccc2c(c1)nc(NCCCCNC(=O)c1ccccc1OC)c1nnc(C)n12 [Example 414, 2-methoxy-N-{4-[7-(2-methoxy-ethoxy)-1-methyl-[1,2,4]triazolo[4,3-a]quinoxaline-4-ylamino]-butyl}-benzamide]	630 nM	≤ 50 nM	16 nM	
COc1ccc2c(c1)nc(NCCCCNC(=O)[C@H](C(C)C)N1CCC(O)C1)c1nnc(C)n12 (stereo partly drawn) [Example 315, 2-(S)-(3-hydroxy-pyrrolidine-1-yl)-N-[4-(7-methoxy-1-methyl-[1,2,4]triazolo[4,3-a]quinoxaline-4-ylamino)-butyl]-3-methyl-butyramide]	550 nM	≤ 50 nM	36 nM	
Cc1nnc2c(NCCCCNC(=O)c3ccccc3Cl)nc3cc4c(cc3n12)OCCO4 [Example 187, 2-chloro-N-[4-(1-methyl-8,9-dihydro-7,10-dioxa-2,3,5,11b-tetraaza-cyclopenta[a]anthracene-4-ylamino)-butyl]-benzamide]	110 nM	≤ 50 nM	24 nM	≤ 200 nM
COCCOc1ccc2c(c1)nc(NCCCCNC(=O)c1cccc(Cl)c1Cl)c1nnc(C)n12 [Example 413, 2,3-dichloro-N-{4-[7-(2-methoxy-ethoxy)-1-methyl-[1,2,4]triazolo[4,3-a]quinoxaline-4-ylamino]-butyl}-benzamide]	190 nM	≤ 10 nM		
CCC(F)(F)C(=O)NCCCCNc1nc2cc(OCCOC)ccc2n2c(C)nnc12 [Example 391, 2,2-difluoro-N-{4-[7-(2-methoxy-ethoxy)-1-methyl-[1,2,4]triazolo[4,3-a]quinoxaline-4-ylamino]-butyl}-butyramide]	200 nM	≤ 10 nM	5 nM	≤ 200 nM
CCc1nnc2c(NCCCCNC(=O)OC(C)C)nc3cc(OC)ccc3n12 [Example 623, [4-(7-methoxy-1-ethyl-[1,2,4]triazolo[4,3-a]quinoxaline-4-ylamino)-butyl]-carbamic acid isopropylester]	400 nM	≤ 50 nM	5 nM	
CCOc1cc2nc(NCCCCNC(=O)OC(C)(C)C)c3nnc(C)n3c2cc1OCC [Example 173]	360 nM	≤ 10 nM	4 nM	
Cc1nnc2c(NCCCCNC(=O)Cc3cccs3)nc3cc(OC(C)C)ccc3n12 [Example 451, N-[4-(7-isopropoxy-1-methyl-[1,2,4]triazolo[4,3-a]quinoxaline-4-ylamino)-butyl]-2-thiophene-2-yl-acetamide]	24 nM	≤ 50 nM	13 nM	≤ 200 nM
COc1ccc2c(c1)nc(NCCCCNC(=O)NC1CCCCC1)c1nnc(C)n12 [Example 335, 1-cyclohexyl-3-[4-(7-methoxy-1-methyl-[1,2,4]triazolo[4,3-a]quinoxaline-4-ylamino)-butyl]-urea]	40 nM	≤ 50 nM	16 nM	≤ 200 nM
COc1cc2nc(NCCCCNC(=O)[C@@H](O)C(C)C)c3nnc(C)n3c2cc1C(F)(F)F [Example 479, 2-(S)-hydroxy-N-[4-(7-methoxy-1-methyl-8-trifluoromethyl-[1,2,4]triazolo[4,3-a]quinoxaline-4-ylamino)-butyl]-3-methyl-butyramide]	240 nM	≤ 10 nM	5 nM	
COc1ccc2c(c1)nc(NCCCCNC(=O)C(C)C)c1nnc(C)n12 [Example 281, N-[4-(7-methoxy-1-methyl-[1,2,4]triazolo[4,3-a]quinoxaline-4-ylamino)-butyl]-isobutyramide]	158 nM	≤ 10 nM	0.4 nM	≤ 200 nM
COCCOc1ccc2c(c1)nc(NCCCCNC(=O)C(C)(C)C)c1nnc(C)n12 [Example 375, {4-[7-(2-methoxy-ethoxy)-1-methyl-[1,2,4]triazolo[4,3-a]quinoxaline-4-ylamino]-butyl}-2,2-dimethyl-propionamide]	400 nM	≤ 50 nM		
CCc1nnc2c(NCCCCNC(=O)OCC(C)C)nc3cc(OC)ccc3n12 [Example 624, [4-(7-methoxy-1-ethyl-[l,2,4]triazolo[4,3-a]quinoxaline-4-ylamino)-butyl]-carbamic acid isobutylester]	410 nM	≤ 50 nM	16 nM	
Cc1nnc2c(NCCCCNC(=O)[C@@H](O)C(C)C)nc3cc4c(cc3n12)OCCO4 [Example 183, 2-(S)-hydroxy-3-methyl-N-[4-(1-methyl-8,9-dihydro-7,10-dioxa-2,3,5,11b-tetraaza-cyclopenta[a]anthracene-4-ylamino)-butyl]-butyramide]	250 nM	≤ 50 nM	11 nM	
COc1cc2nc(NCCCCNC(=O)c3ccc(C(C)(C)C)cc3)c3nnc(C)n3c2cc1OC [Example 96, 4-tert-butyl-N-[4-(7,8-dimethoxy-1-methyl-[1,2,4]triazolo[4,3-a]quinoxaline-4-ylamino)-butyl]-benzamide]	630 nM	≤ 50 nM		
Cc1nnc2c(NCCCCNC(=O)OC(C)C)nc3cc4c(cc3n12)OCCO4 [Example 188, [4-(1-methyl-8,9-dihydro-7,10-dioxa-2,3,5,11b-tetraaza-cyclopenta[a]anthracene-4-ylamino)-butyl]-carbamic acid isopropylester]	170 nM	≤ 50 nM	25 nM	≤ 200 nM
Cc1nnc2c(NCCCCNC(=O)c3ccccc3)nc3ccc(OC(F)(F)F)cc3n12 [Example 267, N-[4-(1-methyl-8-trifluoromethoxy-[1,2,4]triazolo[4,3-a]quinoxaline-4-ylamino)-butyl]-benzamide]	570 nM	≤ 50 nM	39 nM	
CCCOC(=O)NCCCCNc1nc2cc(OC)c(OC)cc2n2c(C)nnc12 [Example 64, [4-(7,8-dimethoxy-1-methyl-[1,2,4]triazolo[4,3-a]quinoxaline-4-ylamino)-butyl]-carbamic acid propylester]	120 nM	≤ 50 nM	20 nM	≤ 200 nM
COc1cc2nc(NCCCCC(=O)NCc3ccccc3)c3nnc(C)n3c2cc1OC [Example 651, 5-(7,8-dimethoxy-1-methyl-[1,2,4]triazolo[4,3-a]quinoxaline-4-ylamino)-pentanoic acid-benzylamide]	120 nM	≤ 50 nM	23 nM	≤ 200 nM
CCC(F)(F)C(=O)NCCCCNc1nc2cc(-c3nc4ccccc4n3C)ccc2n2c(C)nnc12 [Example 233, 2,2-difluoro-N-{4-[1-methyl-7-(1-methyl-1H-benzoimidazole-2-yl)-[1,2,4]triazolo[4,3-a]quinoxaline-4-ylamino]-butyl}-butyramide]	71 nM	≤ 10 nM	2 nM	≤ 200 nM
COc1cc2nc(NCCCCNC(=O)C3CC3)c3nnc(C)n3c2cc1OC [Example 76, cyclopropane-carboxylic acid-[4-(7,8-dimethoxy-1-methyl-[1,2,4]triazolo[4,3-a]quinoxaline-4-ylamino)-butyl]-amide]	870 nM	≤ 50 nM	38 nM	
